Experimental data reported in ChEMBL document CHEMBL1138487, “Tacripyrines, the first tacrine-dihydropyridine hybrids, as multitarget-directed ligands for the treatment of Alzheimer's disease” (J Med Chem, 2009).

Columns and labels:
Acetylcholinesterase [1] = target: T1, Acetylcholinesterase (Homo sapiens, UniProt P22303)
Description: Inhibition of human serum AChE by Ellman's method

Acetylcholinesterase [2] = target: Acetylcholinesterase (Electrophorus electricus, UniProt O42275)
Description: Inhibition of electric eel AChE by Rappaport method

Cholinesterase = Cholinesterase (Homo sapiens, UniProt P06276)
Description: Inhibition of human serum BChE by Ellman's method

in vitro = conditions: pig, PAMPA
Description: Permeability across porcine brain lipid coated polyvinylidene fluoride membrane by PAMPA

Acetylcholinesterase [3] = target: T1, Acetylcholinesterase; conditions: 100 uM
Description: Inhibition of human AChE-induced amyloid beta (1-40) aggregation at 100 uM after 24 hrs by thioflavin T fluorescence method

[4] = Inhibition of amyloid beta (1-42) self-aggregation at 1:1 drug to amyloid beta (1 to 42) ratio after 24 hrs by thioflavin T fluorescence method; conditions: concentration not given here

Sequence of Acetylcholinesterase (Electrophorus electricus, UniProt O42275) (O42275 whole entry): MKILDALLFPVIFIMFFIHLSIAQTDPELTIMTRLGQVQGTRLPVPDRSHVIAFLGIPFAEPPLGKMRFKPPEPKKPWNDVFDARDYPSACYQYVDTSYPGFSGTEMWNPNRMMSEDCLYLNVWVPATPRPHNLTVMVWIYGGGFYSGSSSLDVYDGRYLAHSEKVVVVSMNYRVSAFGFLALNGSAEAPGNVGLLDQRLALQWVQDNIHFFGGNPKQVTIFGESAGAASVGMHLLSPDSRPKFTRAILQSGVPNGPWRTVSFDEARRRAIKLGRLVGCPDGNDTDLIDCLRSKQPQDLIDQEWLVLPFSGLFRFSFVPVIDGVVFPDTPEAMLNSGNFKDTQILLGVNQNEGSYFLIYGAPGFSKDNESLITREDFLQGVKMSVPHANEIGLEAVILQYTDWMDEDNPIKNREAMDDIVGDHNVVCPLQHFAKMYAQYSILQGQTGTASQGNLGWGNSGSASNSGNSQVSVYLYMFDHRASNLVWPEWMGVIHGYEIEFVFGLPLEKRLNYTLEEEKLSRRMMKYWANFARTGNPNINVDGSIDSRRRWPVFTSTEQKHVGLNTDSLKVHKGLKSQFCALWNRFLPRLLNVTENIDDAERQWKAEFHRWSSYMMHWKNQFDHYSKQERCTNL
T1 sequence (P22303 whole entry): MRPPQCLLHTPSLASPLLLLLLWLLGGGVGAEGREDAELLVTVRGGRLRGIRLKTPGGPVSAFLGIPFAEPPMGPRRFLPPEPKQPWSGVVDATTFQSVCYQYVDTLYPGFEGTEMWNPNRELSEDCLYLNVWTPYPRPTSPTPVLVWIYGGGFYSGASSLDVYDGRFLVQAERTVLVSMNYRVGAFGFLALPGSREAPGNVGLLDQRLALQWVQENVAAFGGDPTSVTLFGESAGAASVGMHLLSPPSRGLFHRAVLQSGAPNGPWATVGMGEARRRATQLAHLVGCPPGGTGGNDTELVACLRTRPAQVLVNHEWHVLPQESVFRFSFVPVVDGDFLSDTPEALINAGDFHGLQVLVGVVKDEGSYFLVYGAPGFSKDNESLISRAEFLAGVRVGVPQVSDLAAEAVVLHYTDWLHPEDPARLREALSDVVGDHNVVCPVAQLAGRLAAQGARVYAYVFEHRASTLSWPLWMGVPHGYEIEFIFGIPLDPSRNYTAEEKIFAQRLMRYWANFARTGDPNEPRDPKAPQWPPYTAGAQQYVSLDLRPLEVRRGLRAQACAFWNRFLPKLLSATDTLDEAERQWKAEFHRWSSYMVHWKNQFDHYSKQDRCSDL
Sequence of Cholinesterase (P06276 whole entry): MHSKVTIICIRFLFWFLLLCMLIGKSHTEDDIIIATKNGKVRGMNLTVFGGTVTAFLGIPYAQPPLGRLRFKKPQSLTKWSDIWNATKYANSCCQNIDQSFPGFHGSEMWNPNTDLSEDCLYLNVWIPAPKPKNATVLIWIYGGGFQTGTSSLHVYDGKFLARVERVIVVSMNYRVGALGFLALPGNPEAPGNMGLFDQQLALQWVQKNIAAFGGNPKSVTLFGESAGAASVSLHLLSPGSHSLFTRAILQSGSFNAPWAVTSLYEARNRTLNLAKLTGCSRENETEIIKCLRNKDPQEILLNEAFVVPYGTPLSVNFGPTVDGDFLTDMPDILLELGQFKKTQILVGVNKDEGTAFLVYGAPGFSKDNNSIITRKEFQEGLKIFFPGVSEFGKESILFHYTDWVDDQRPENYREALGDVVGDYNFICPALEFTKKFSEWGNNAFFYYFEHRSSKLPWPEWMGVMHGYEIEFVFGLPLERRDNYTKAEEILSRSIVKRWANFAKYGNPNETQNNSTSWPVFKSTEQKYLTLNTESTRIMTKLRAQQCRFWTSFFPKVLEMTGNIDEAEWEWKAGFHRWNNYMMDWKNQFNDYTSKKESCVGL

Compound | IC50 (Acetylcholinesterase [1]) [nM] | IC50 (Acetylcholinesterase [2]) [nM] | IC50 (Cholinesterase) [nM] | Papp (in vitro) [×10⁻⁶ cm/s] | also measured
CCOC(=O)C1=C(C)Nc2nc3c(c(N)c2C1c1cccnc1)CCCC3 (stereo unspecified) | 158 | 47 | > 100000 |  | 
C[C@]12CCC(=O)C=C1CC[C@@H]1[C@@H]2[C@@H](O)C[C@]2(C=O)[C@@H](C(=O)CO)CC[C@@H]12 [ALDOSTERONE] |  |  |  | 0.6 | 
CN(C)CCCN1c2ccccc2Sc2ccccc21 [PROMAZINE] |  |  |  | 7.7 | 
CC(=O)[C@H]1CC[C@H]2[C@@H]3CCC4=CC(=O)CC[C@]4(C)[C@H]3CC[C@]12C [PROGESTERONE] |  |  |  | 6.6 | 
CCOC(=O)C1=C(C)Nc2nc3c(c(N)c2C1c1ccc(OC)cc1)CCCC3 (stereo unspecified) |  |  |  |  | inhibition (Acetylcholinesterase [3]): 30.7%; inhibition [4]: 34.9%
CCOC(=O)C1=C(C)Nc2nc3c(c(N)c2C1c1ccc(OC)c(OC)c1)CCCC3 (stereo unspecified) | 45 | 103 | > 100000 |  | 
CN1C(C(=O)Nc2ccccn2)=C(O)c2ccccc2S1(=O)=O [PIROXICAM] |  |  |  | 0.4 | 
CCOC(=O)C1=C(C)Nc2nc3c(c(N)c2C1c1ccc(-c2ccccc2)cc1)CCCC3 (stereo unspecified) | 71 | 90 | > 100000 |  | 
CCn1cc(C(=O)O)c(=O)c2cc(F)c(N3CCNC(C)C3)c(F)c21 (stereo unspecified) [LOMEFLOXACIN] |  |  |  | 0.5 | 
CCn1cc(C(=O)O)c(=O)c2cc(F)c(N3CCNCC3)nc21 [ENOXACIN] |  |  |  | 0.6 | 
CCOC(=O)C1=C(C)Nc2nc3c(c(N)c2C1c1ccncc1)CCCC3 (stereo unspecified) | 223 | 220 | > 100000 |  | 
COc1ccc(CCN2CCC(Nc3nc4ccccc4n3Cc3ccc(F)cc3)CC2)cc1 [ASTEMIZOLE] |  |  |  | 6.1 | 
